# Patent publication US20210147455A1 (SHAANXI SYNTHETIC PHARMACEUTICAL CO., LTD., priority 2018, published 2021)
# Values joined by “and” are separate entries in the source; they are usually repeats but may differ in a detail not shown here. Equal values may be shown once.
# What was measured:
# [1] = Stability experiments under 40° C.±2° C. and 75% R.H±5% R.H (accelerated test); format: physicochemical; settings: 40° C./75% R.H
# [2] = Stability experiments under 25° C.±2° C. and 65% R.H±5% R.H; settings: 25° C./65% R.H
# Description: • 1. […] The results are shown in detail in the following table.
# [3] = Hygroscopicity study (Chinese Pharmacopoeia 2015, 9103); format: physicochemical; settings: for Hygroscopic weight gain: 25° C.±1° C., saturated ammonium chloride solution, 24 hours; for Conclusion (hygroscopicity): after 24 hours
# Description: Test method: • 1. A dried glass weighing bottle with stopper (having an outer diameter of 50 mm and a height of 15 mm) was placed in a thermostatic drier (a saturated ammonium chloride solution was placed on the lower part of the thermostatic drier) at an appropriate temperature of 25° C.±1° C. on the day earlier before the test, and the weight (m1) of weighing bottle was precisely weighed. • 2. An appropriate amount of test sample was taken and spread in the weighing bottle, and the thickness of the test sample was controlled to about 1 mm, and the weight (m2) was precisely weighed. • 3. The weighing bottle was opened and was placed, together with the bottle cap, under the above mentioned constant temperature and humidity condition for 24 hours. • 4. The weighing bottle was capped and precisely weighed to obtain the weight (m3).
# Description of hygroscopicity characterization and delimitation of hygroscopicity weight gain: Deliquescence: enough moisture is absorbed to form a liquid. […] Slightly hygroscopic: hygroscopic weight gain is less than 2% but not less than 0.2%. Not or hardly hygroscopic: hygroscopic weight gain is less than 0.2%.
# [4] = month 3, Phosphate Monopotassium Salt
# [5] = month 6, Phosphate Monopotassium Salt
# [6] = month 9, Phosphate Monopotassium Salt
# [7] = month 12, Phosphate Monopotassium Salt
# [8] = month 24, Phosphate Monopotassium Salt
Substance,Content ([1]; month 0) [%],Description ([1]; month 0),Related substance ([1]; month 0) [%],Content ([1]; month 1) [%],Description ([1]; month 1),Related substance ([1]; month 1) [%],Content ([1]; month 2) [%],Description ([1]; month 2),Related substance ([1]; month 2) [%],Content ([1]; month 3) [%],Description ([1]; month 3),Related substance ([1]; month 3) [%],Content ([1]; month 6) [%],Description ([1]; month 6),Related substance ([1]; month 6) [%],Content ([2]; month 0) [%],Description ([2]; month 0),Related substance ([2]; month 0) [%],Description ([2]; month 3),Description ([2]; month 6),other results
Posaconazole Phosphate Disodium Salt [Comparative Example 10],99.87,White,0.13,99.72,White,0.28,99.60,White,0.40,99.45,White,0.55,99.34,White,0.66,99.87,White,0.13,White,White,Content ([2]; month 3): 99.72%; Related substance ([2]; month 3): 0.28%; Content ([2]; month 6): 99.62%; Related substance ([2]; month 6): 0.38%; Content ([2]; month 9): 99.57%; Description ([2]; month 9): White; Related substance ([2]; month 9): 0.43%; Content ([2]; month 12): 99.40%; Description ([2]; month 12): White; Related substance ([2]; month 12): 0.60%; Content ([2]; month 24): 98.84%; Description ([2]; month 24): White; Related substance ([2]; month 24): 1.16%; Hygroscopic weight gain [3]: 13.91%
Posaconazole Phosphate Monopotassium Salt Trihydrate [Comparative Example 6],99.87,White,0.13,99.76,White,0.24,99.65,White,0.35,99.49,White,0.51,99.38,White,0.62,99.87,White,0.13,White,White,Content ([2]; month 3): 99.78%; Related substance ([2]; month 3): 0.22%; Content ([2]; month 6): 99.70%; Related substance ([2]; month 6): 0.30%; Content ([2]; month 9): 99.59%; Description ([2]; month 9): White; Related substance ([2]; month 9): 0.41%; Content ([2]; month 12): 99.48%; Description ([2]; month 12): White; Related substance ([2]; month 12): 0.52%; Content ([2]; month 24): 99.00%; Description ([2]; month 24): White; Related substance ([2]; month 24): 1.00%; Hygroscopic weight gain [3]: 1.95%; Conclusion (hygroscopicity) [3]: Slight hygroscopicity
Posaconazole Phosphate Monopotassium Salt [Comparative Example 3],99.87,White,0.13,99.75,White,0.25,99.64,White,0.36,99.51,White,0.49,99.38,White,0.62,99.87,White,0.13,White,White,"Content [2, 4]: 99.73% and 99.80%; Related substance [2, 4]: 0.27% and 0.20%; Content [2, 5]: 99.67% and 99.68%; Related substance [2, 5]: 0.37% and 0.32%; Description ([2]; month 9): White; Content [2, 6]: 99.55% and 99.59%; Related substance [2, 6]: 0.45% and 0.41%; Description ([2]; month 12): White; Content [2, 7]: 99.41% and 99.48%; Related substance [2, 7]: 0.59% and 0.52%; Description ([2]; month 24): White; Content [2, 8]: 98.88% and 99.03%; Related substance [2, 8]: 1.12% and 0.97%; Hygroscopic weight gain [3]: 1.56%; Conclusion (hygroscopicity) [3]: Slight hygroscopicity"
Posaconazole Phosphate Monosodium Salt Trihydrate [Comparative Example 7],99.87,White,0.13,99.77,White,0.23,99.63,White,0.37,99.50,White,0.50,99.37,White,0.63,99.87,White,0.18,White,White,Content ([2]; month 3): 99.78%; Related substance ([2]; month 3): 0.22%; Content ([2]; month 6): 99.71%; Related substance ([2]; month 6): 0.29%; Content ([2]; month 9): 99.61%; Description ([2]; month 9): White; Related substance ([2]; month 9): 0.39%; Content ([2]; month 12): 99.51%; Description ([2]; month 12): White; Related substance ([2]; month 12): 0.49%; Content ([2]; month 24): 98.98%; Description ([2]; month 24): White; Related substance ([2]; month 24): 1.02%; Hygroscopic weight gain [3]: 1.86%; Conclusion (hygroscopicity) [3]: Slight hygroscopicity
